Results from patent US20030013660A1, “Dioxolane analogs for improved inter-cellular delivery” (Shire BioChem Inc., priority 2000, published 2003).
Values joined by “and” are separate entries in the source; they are usually repeats but may differ in a detail not shown here. Equal values may be shown once. Read-outs that look alike come from different tables or passages of the source.

Legend:
[1] = system: MCF-7; assay: 3H-TdR (3H-thymidine) incorporation assay at 72 hr; assay type: cell-based, Human; conditions: 3H-TdR incorporation at 72 hr
[2] = system: CCRF-CEM; assay: 3H-TdR (3H-thymidine) incorporation assay at 72 hr; assay type: cell-based; conditions: 3H-TdR incorporation at 72 hr
Method: (§1) Table of IC50 Values (μM) for Controls
(§2) Exposition of 24 hr to drug, wash, incubated for another 48 hr (total of 72 hr assay)
(§3) (3H-Thymidine Incorporation Assay)

[3] = system: CEM/dCK-; assay: 3H-TdR (3H-thymidine) incorporation assay at 72 hr; assay type: cell-based; conditions: for IC50: deoxycytidine kinase-deficient CCRF-CEM; for Factor* (Resistance Factor = Ratio of dCK- on Wild-type CCRF-CEM): ratio of IC50 CEM/dCK- to CCRF-CEM, 24 h
Method: as §1, §2, §3

[4] = system: SF-268; assay: 3H-TdR (3H-thymidine) incorporation assay at 72 hr; assay type: cell-based, Human; conditions: 3H-TdR incorporation at 72 hr
[5] = system: H-460; assay: 3H-TdR (3H-thymidine) incorporation assay at 72 hr; assay type: cell-based, Human; conditions: 3H-TdR incorporation at 72 hr
[6] = system: CEM/dCK-; assay: 3H-TdR incorporation at 72 hr (24 hr drug exposure, wash, 48 hr); assay type: cell-based; conditions: read-out: IC50 in μM (3H-TdR incorporation at 72 hr) CEM/dCK- 24 h; CCRF-CEM deoxycytidine kinase-deficient; 24 h drug exposure, 72 hr assay
Method: as §2, §3

[7] = Homo sapiens, MCF7, read-out: IC50 MCF-7 24 h, 24 h drug exposure, wash, another 48 hr
[8] = read-out: IC50 MCF-7 24 h, 24 h drug exposure, wash, another 48 hr
[9] = Homo sapiens, CCRF-CEM, read-out: IC50 CCRF-CEM 24 h, 24 h drug exposure, wash, another 48 hr
[10] = read-out: IC50 CCRF-CEM 24 h, 24 h drug exposure, wash, another 48 hr
[11] = Homo sapiens, CCRF-CEM, read-out: IC50 CEM/dCK- 24 h, 24 h drug exposure, wash, another 48 hr
[12] = Homo sapiens, SF-268, read-out: IC50 SF-268 24 h, 24 h drug exposure, wash, another 48 hr
[13] = Homo sapiens, NCI-H460, read-out: IC50 H-460 24 h, 24 h drug exposure, wash, another 48 hr
[14] = read-out: IC50 H-460 24 h, 24 h drug exposure, wash, another 48 hr
[15] = read-out: IC50 CEM/dCK- 24 h, 24 h drug exposure, wash, another 48 hr
[16] = read-out: IC50 SF-268 24 h, 24 h drug exposure, wash, another 48 hr

CCCCC(C)C(=O)Nc1ccn([C@@H]2CO[C@H](CO)O2)c(=O)n1 (stereo in doubt) [Compound 96, 2-METHYL-HEXANOIC ACID [1-(2-HYDROXYMETHYL- [1,3]DIOXOLAN-4-YL)-2- OXO-1,2-DIHYDRO- PYRIMIDIN-4-YL]-AMIDE]
IC50 [1, 7]: 190 nM | IC50 [1, 8]: 210 nM | IC50 [2, 9]: 1.8 µM | IC50 [2, 10]: 1.9 µM | IC50 [3, 11]: > 100 µM

CCCCC(CC)C(=O)Nc1ccn([C@@H]2CO[C@H](CO)O2)c(=O)n1 (stereo in doubt) [Compound 99, 2-ETHYL-HEXANOIC ACID [1-(2-HYDROXYMETHYL- [1,3]DIOXOLAN-4-YL)-2- OXO-1,2-DIHYDRO- PYRIMIDIN-4-YL]-AMIDE]
IC50 [1, 7]: 6300 nM | IC50 [4, 12]: 33 µM | IC50 [2, 9]: 5 µM | IC50 [3, 11]: > 100 µM | Factor* (Resistance Factor = Ratio of dCK- on Wild-type CCRF-CEM) [3]: >20

CC(=O)OC[C@H]1OC[C@@H](n2ccc(N)nc2=O)O1 [Compound 27]
IC50 ([5]; read-out: IC50 H-460 (72 h), 72 h exposure): 0.0053 µM | IC50 ([1]; read-out: IC50 MCF-7 (72 h), 72 h exposure): 7.3 nM | IC50 ([4]; read-out: IC50 SF-268 (72 h), 72 h exposure): 0.023 µM

CCCCNC(=O)OC[C@H]1OC[C@@H](n2ccc(N)nc2=O)O1 [Compound 48, BUTYL-CARBAMIC ACID 4- (4-AMINO-2-OXO-2H- PYRIMIDIN-1-YL)- [1,3]DIOXOLAN-2- YLMETHYL ESTER]
IC50 [5, 13]: 0.34 µM | IC50 [5, 14]: 0.59 µM | IC50 [3, 11]: > 100 µM

CC(C)(C(=O)Nc1ccn([C@@H]2CO[C@H](CO)O2)c(=O)n1)c1ccccc1[N+](=O)[O-] [Compound 60, (2S,4S)--2- HYDROXYMETHYL-4-N-[2″- (2″′-NITROPHENYL)-2″- METHYLPROPIONYL]- CYTOSINE-1′-YL-1,3- DIOXOLANE]
IC50 [5, 13]: 2 µM | IC50 [5, 14]: 3.1 µM | IC50 [1, 7]: 860 nM | IC50 [1, 8]: 950 nM | IC50 [2, 9]: 0.29 µM | IC50 [2, 10]: 0.31 µM | IC50 [3, 11]: 2.9 µM | IC50 [3, 15]: 1.8 µM

CCCCCCOC(=O)Nc1ccn([C@@H]2CO[C@H](CO)O2)c(=O)n1 [Compound 61, [1-(2-HYDROXYMETHYL- [1,3]DIOXOLAN-4-YL)-2- OXO-1,2-DIHYDRO- PYRIMIDIN-4-YL]- CARBAMIC ACID HEXYL ESTER]
IC50 [3, 11]: > 100 µM

CC(C)(C)OC(=O)N(CCCCCC(=O)OC[C@H]1OC[C@@H](n2ccc(N)nc2=O)O1)Cc1ccccc1 [Compound 66, 6-(Benzyl-tert-butoxycarbonyl-amino)-hexanoic acid 4-(4-amino-2-oxo-2H-pyrimidin-1-yl)-[1,3]dioxolan-2-ylmethyl ester]
IC50 [1, 7]: < 0.1 nM | IC50 [1, 8]: 0.074 nM

CCCCC(C)(C)C(=O)OC[C@H]1OC[C@@H](n2ccc(/N=C\N(C)C)nc2=O)O1 [Compound 72, (2S,4S)-2-(2″- DIMETHYLHEXANOICOXYMETH YL)-4-(4′-N,N- DIMETHYLAMINOMETHYLENE- CYTOSIN-1′-YL)-1,3- DIOXOLANE]
IC50 [5, 13]: 0.018 µM | IC50 [5, 14]: 0.027 µM | IC50 [1, 7]: 15 nM | IC50 [1, 8]: 17 nM | IC50 [4, 12]: 0.13 µM | IC50 [4, 16]: 0.075 µM | IC50 [3, 11]: 23 µM

Cc1cccc(C)c1C(=O)OC[C@H]1OC[C@@H](n2ccc(/N=C\N(C)C)nc2=O)O1 [Compound 87, (2S,4S)-2-(2″,6″- DIMETHYLBENZOYLOXYMETHY L)-4-(4′-N,N- DIMETHYLAMINOMETHLYENE- CYTOSIN-1′-YL)-1,3- DIOXOLANE]
IC50 [3, 11]: > 100 µM

CCNc1ccn([C@@H]2CO[C@H](COCC)O2)c(=O)n1 [Compound 93, 1-(2′(S)-ETHOXYMETHYL- [1,3]DIOXOLAN-4′(S)- YL)-4-ETHYLAMINO-1H- PYRIMIDIN-2-ONE]
IC50 [4, 12]: > 100 µM | IC50 [3, 11]: > 100 µM

CC(C)[C@@H]1CC[C@@H](C)C[C@H]1OC(=O)Nc1ccn([C@@H]2CO[C@H](CO)O2)c(=O)n1 [Compound 94, [1-(2-Hydroxymethyl-[1,3]dioxolan-4-yl)-2-oxo-1,2-dihydro-pyrimidin-4-yl]-carbamic acid 2-isopropyl-5-methyl-cyclohexyl ester]
IC50 [1, 7]: 24000 nM | IC50 [1, 8]: 13000 nM | IC50 [3, 11]: 51 µM | IC50 [3, 15]: 85 µM

CC(C)[C@@H]1CC[C@@H](C)C[C@H]1OC(=O)OC[C@H]1OC[C@@H](n2ccc(N)nc2=O)O1 [Compound 95, Carbonic acid 4-(4-amino-2-oxo-2#H!- pyrimidin-1-yl)-[1,3]dioxolan-2-ylmethyl ester 2-isopropyl-5-methyl-cyclohexyl ester]
IC50 [5, 13]: < 0.0001 µM | IC50 [1, 7]: 150 nM | IC50 [1, 8]: 100 nM

CCCCOC(C)OC[C@H]1OC[C@@H](n2ccc(N)nc2=O)O1 (some centres unmarked) [Compound 97, 4-AMINO-1-[2-(1-BUTOXY- ETHOXYMETHYL)- [1,3]DIOXOLAN-4-YL]-1H- PYRIMIDIN-2-ONE]
IC50 [5, 13]: 22 µM | IC50 [1, 7]: 5000 nM | IC50 [1, 8]: 4000 nM | IC50 [2, 9]: 9.2 µM | IC50 [2, 10]: 5.9 µM | IC50 [3, 11]: > 100 µM

Nc1ccn([C@@H]2CO[C@H](COCc3ccccc3)O2)c(=O)n1 [Compound 98, (2S,4S) 4-AMINO-1-(2- BENZYLOXYMETHYL- [1,3]DIOXOLAN-4-YL)-1H- PYRIMIDIN-2-ONE]
IC50 [1, 7]: 130 nM | IC50 [1, 8]: 150 nM and 220 nM | IC50 [3, 11]: > 100 µM

CC(C)c1cc(C(C)C)c(C(=O)OC[C@H]2OC[C@@H](n3ccc(N)nc3=O)O2)c(C(C)C)c1 [Compound 100, 2,4,6-Triisopropyl-benzoic acid 4-(4-amino-2-oxo-2H-pyrimidin-1-yl)-[1,3]dioxolan-2-ylmethyl ester]
IC50 [5, 13]: 0.03 µM | IC50 [5, 14]: 0.044 µM

CC(C(=O)OC[C@H]1OC[C@@H](n2ccc(N)nc2=O)O1)c1ccccc1.Cl (some centres unmarked) [Compound 106]
Factor* (Resistance Factor = Ratio of dCK- on Wild-type CCRF-CEM) [3]: 4,600

CC(C)c1ccc(NC(=O)OC[C@H]2OC[C@@H](n3ccc(N)nc3=O)O2)cc1 [Compound 127, (4-ISOPROPYL-PHENYL)- CARBAMIC ACID 4-(4- AMINO-2-OXO-2H- PYRIMIDIN-1-YL)- [1,3]DIOXOLAN-2- YLMETHYL ESTER]
IC50 [1, 7]: 16000 nM | IC50 [1, 8]: 15000 nM | IC50 [2, 9]: 15 µM | IC50 [2, 10]: 22 µM | IC50 [3, 11]: > 100 µM

CCCCCCN(CCCCCC)C(=O)OC[C@H]1OC[C@@H](n2ccc(N)nc2=O)O1 [Compound 135, DIHEXYLCARBAMIC ACID 4(S)-(4′-AMINO-2′-OXO- 2H-PYRIMIDIN-1′-YL)- [1,3]DIOXOLAN-2(S)- YLMETHYL ESTER]
IC50 [4, 12]: 0.25 µM

CCCCCCCCCCNC(=O)OC[C@H]1OC[C@@H](n2ccc(N)nc2=O)O1 [Compound 137, DECYL-CARBAMIC ACID 4- (4-AMINO-2-OXO-2H- PYRIMIDIN-1-YL)- [1,3]DIOXOLAN-2- YLMETHYL ESTER]
IC50 [4, 12]: 18.4 µM | IC50 [4, 16]: 16 µM | IC50 [2, 9]: 5 µM | IC50 [2, 10]: 6.5 µM | IC50 [3, 11]: 84 µM | IC50 [3, 15]: 53 µM

CC(CCCCN(Cc1ccccc1)C(=O)OC(C)(C)C)C(=O)OC[C@H]1OC[C@@H](n2ccc(/N=C/N(C)C)nc2=O)O1 (some centres unmarked) [Compound 149, 6-(Benzyl-tert-butoxycarbonyl-amino)-methyl-hexanoic acid 4-[4-(dimethylamino-methyleneamino)-2-oxo-2H-pyrimidin-1-yl]-[1,3]dioxolan-2-ylmethyl ester]
IC50 [2, 9]: < 0.0001 µM | IC50 [2, 10]: 0.00012 µM | IC50 [3, 11]: 2 µM | IC50 [3, 15]: > 1.8 µM

CC(C)(C(=O)OC[C@H]1OC[C@@H](n2ccc(N)nc2=O)O1)c1ccccc1[N+](=O)[O-] [Compound 155, (2S,4S)-2-[2″-(2″′- NITROPHENYL)-2″- METHYLPROPIONYLOXYMETHY L]-4-CYTOSIN-1′-YL-1,3- DIOXOLANE]
IC50 [3, 11]: > 100 µM

CN(C)/C=N/c1ccn([C@@H]2CO[C@H](COC(=O)C(C)(C)CCC(=O)N(Cc3ccccc3)C(=O)OC(C)(C)C)O2)c(=O)n1 [Compound 166, 5-(Benzyl-tert-butoxycarbonyl-amino)-2,2-dimethyl-5-oxo-pentanoic acid 4-[4-(dimethylamino-methyleneamino)-2-oxo-2H-pyrimidin-1-yl]-[1,3]dioxolan-2-ylmethyl ester]
IC50 [6]: 10 µM

CC(C)(C)C(=O)OC[C@H]1OC[C@@H](n2ccc(N)nc2=O)O1 [Compound 279, 2,2-DIMETHYL-PROPIONIC ACID 4-(4-AMINO-2-OXO- 2H-PYRIMIDIN-1-YL)- [1,3]DIOXOLAN-2-YL METHYL ESTER]
IC50 [5, 13]: 0.58 µM | IC50 ([5]; Homo sapiens, NCI-H460, read-out: IC50 H-460 (72 h), 72 h exposure): 0.073 µM | IC50 [1, 7]: 240 nM | IC50 ([1]; Homo sapiens, MCF7, read-out: IC50 MCF-7 (72 h), 72 h exposure): 21 nM | IC50 [4, 12]: 0.39 µM | IC50 ([4]; Homo sapiens, SF-268, read-out: IC50 SF-268 (72 h), 72 h exposure): 0.044 µM
